Data: patent US11691980B2, “Liphagal analog and multi-targeted kinase inhibitor containing liphagal or analog thereof” (TOHOKU UNIVERSITY, priority 2017, dated 2023)

Assays:
Format in all cases: biochemical
HPK2 = target: T1, HPK2 (Homo sapiens, UniProt Q9H2X6); test: mobility shift assay
T1 construct: purchased Carna Biosciences

TAOK2 = target: T2, TAOK2 (Homo sapiens, UniProt Q9UL54); test: mobility shift assay
T2 construct: purchased Carna Biosciences

FES = target: T3, FES (Homo sapiens, UniProt P07332); test: mobility shift assay
T3 construct: purchased Carna Biosciences
T3 sequence (P07332 whole entry): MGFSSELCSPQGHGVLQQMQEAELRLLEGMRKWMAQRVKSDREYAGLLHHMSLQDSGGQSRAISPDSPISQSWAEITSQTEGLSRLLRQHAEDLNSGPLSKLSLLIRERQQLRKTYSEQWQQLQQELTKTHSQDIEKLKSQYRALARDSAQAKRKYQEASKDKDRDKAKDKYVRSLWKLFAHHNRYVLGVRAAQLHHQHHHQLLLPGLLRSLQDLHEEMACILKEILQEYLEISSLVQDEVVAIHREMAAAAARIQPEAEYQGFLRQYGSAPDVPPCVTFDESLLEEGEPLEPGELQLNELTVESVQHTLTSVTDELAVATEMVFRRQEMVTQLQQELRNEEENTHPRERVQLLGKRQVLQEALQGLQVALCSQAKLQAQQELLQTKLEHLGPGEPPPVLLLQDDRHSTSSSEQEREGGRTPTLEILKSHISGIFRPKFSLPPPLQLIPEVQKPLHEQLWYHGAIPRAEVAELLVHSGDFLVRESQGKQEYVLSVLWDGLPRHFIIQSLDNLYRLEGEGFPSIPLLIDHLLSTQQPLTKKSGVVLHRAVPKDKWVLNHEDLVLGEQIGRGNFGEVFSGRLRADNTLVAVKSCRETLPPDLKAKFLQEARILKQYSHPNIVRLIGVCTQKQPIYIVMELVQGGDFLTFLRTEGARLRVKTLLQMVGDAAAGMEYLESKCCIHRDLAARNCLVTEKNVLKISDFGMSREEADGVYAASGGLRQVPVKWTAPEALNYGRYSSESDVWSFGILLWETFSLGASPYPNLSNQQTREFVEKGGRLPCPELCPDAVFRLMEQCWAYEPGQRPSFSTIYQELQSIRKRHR

WNK3 = target: T4, WNK3 (Homo sapiens, UniProt Q9BYP7); test: mobility shift assay
T4 construct: purchased Carna Biosciences

KIT(V560G) = target: T5, KIT(V560G) (Homo sapiens, UniProt P10721, V560G); test: mobility shift assay
T5 construct: purchased Carna Biosciences

COT_Cascade = target: T6, COT_Cascade (Homo sapiens, UniProt P41279); test: mobility shift assay
T6 construct: purchased Carna Biosciences

DCAMKL2 = target: T7, DCAMKL2 (Homo sapiens, UniProt Q8N568); test: mobility shift assay
T7 construct: purchased Carna Biosciences

DLK_Cascade = target: T8, DLK_Cascade (Homo sapiens, UniProt Q12852); test: mobility shift assay
T8 construct: purchased Carna Biosciences

FM8 = target: T9, FM8 (Homo sapiens, UniProt P07333); test: mobility shift assay
T9 construct: purchased Carna Biosciences

PAK2 = target: T10, PAK2 (Homo sapiens, UniProt Q13177); test: mobility shift assay
T10 construct: purchased Carna Biosciences
T10 sequence (Q13177 whole entry): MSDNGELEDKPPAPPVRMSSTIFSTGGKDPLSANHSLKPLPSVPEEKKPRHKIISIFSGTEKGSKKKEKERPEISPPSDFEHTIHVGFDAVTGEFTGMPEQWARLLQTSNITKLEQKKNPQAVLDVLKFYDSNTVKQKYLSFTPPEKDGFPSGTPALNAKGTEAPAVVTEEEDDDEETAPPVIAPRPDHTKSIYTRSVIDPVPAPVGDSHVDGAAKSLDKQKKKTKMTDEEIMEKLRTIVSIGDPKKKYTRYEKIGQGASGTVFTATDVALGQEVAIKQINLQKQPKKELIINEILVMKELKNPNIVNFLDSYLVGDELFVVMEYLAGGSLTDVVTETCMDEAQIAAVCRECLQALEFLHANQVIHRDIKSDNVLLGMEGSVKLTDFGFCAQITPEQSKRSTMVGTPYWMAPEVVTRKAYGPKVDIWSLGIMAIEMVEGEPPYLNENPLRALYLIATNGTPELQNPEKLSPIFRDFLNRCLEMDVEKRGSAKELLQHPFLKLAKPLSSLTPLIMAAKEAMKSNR

BTK = target: T11, BTK (Homo sapiens, UniProt Q06187); test: mobility shift assay
T11 construct: purchased Carna Biosciences

p38B = target: T12, p38B (Homo sapiens, UniProt Q15759); test: mobility shift assay
T12 construct: purchased Carna Biosciences

PDGFRα = target: T13, PDGFRα (Homo sapiens, UniProt P16234); test: mobility shift assay
T13 construct: purchased Carna Biosciences
T13 sequence (P16234 24-1089): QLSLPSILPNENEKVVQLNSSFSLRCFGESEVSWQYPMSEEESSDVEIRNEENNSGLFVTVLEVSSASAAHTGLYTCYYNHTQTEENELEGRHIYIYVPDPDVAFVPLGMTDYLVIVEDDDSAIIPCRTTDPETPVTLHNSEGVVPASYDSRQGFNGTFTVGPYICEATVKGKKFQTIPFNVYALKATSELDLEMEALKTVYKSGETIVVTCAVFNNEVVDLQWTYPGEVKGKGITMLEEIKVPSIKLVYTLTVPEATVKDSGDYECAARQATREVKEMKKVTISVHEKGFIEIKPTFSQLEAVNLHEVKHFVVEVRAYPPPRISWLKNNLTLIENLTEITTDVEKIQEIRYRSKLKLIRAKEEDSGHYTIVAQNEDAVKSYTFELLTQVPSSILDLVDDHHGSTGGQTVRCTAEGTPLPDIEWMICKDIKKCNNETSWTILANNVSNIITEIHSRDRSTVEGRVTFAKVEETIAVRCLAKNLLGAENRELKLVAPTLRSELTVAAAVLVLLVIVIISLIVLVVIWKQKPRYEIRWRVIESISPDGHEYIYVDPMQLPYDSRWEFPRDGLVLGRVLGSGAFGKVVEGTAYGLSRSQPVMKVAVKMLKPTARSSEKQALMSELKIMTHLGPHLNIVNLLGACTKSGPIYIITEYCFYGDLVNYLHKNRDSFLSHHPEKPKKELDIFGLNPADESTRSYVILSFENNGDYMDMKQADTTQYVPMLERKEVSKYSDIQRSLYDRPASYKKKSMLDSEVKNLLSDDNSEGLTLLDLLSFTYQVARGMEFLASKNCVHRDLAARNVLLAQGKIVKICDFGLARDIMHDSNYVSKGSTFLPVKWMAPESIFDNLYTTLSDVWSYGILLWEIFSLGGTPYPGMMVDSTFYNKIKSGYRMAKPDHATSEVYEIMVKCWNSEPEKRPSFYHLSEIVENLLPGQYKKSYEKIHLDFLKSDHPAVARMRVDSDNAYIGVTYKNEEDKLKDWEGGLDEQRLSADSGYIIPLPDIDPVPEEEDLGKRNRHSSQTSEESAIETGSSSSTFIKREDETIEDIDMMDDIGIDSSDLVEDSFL

CSK = target: T14, CSK (Homo sapiens, UniProt P41240); test: mobility shift assay
T14 construct: purchased Carna Biosciences

PDGFRα(V561D) = target: T15, PDGFRα(V561D) (Homo sapiens, UniProt P16234, V561D); test: mobility shift assay
T15 construct: purchased Carna Biosciences
T15 sequence (P16234 24-1089 V561D): as the sequence (P16234 24-1089) above, with V538D counted along it

KIT(D816Y) = target: T16, KIT(D816Y) (Homo sapiens, UniProt P10721, D816Y); test: mobility shift assay
T16 construct: purchased Carna Biosciences

KIT = target: T17, KIT (Homo sapiens, UniProt P10721); test: mobility shift assay
T17 construct: purchased Carna Biosciences

MET(Y1235D) = target: T18, MET(Y1235D) (Homo sapiens, UniProt P08581, Y1235D); test: mobility shift assay
T18 construct: purchased Carna Biosciences

OK1δ = target: T19, OK1δ (Homo sapiens, UniProt P48730); test: mobility shift assay
T19 construct: purchased Carna Biosciences

YES(T348I) = target: T20, YES(T348I) (Homo sapiens, UniProt P07947, T348I); test: mobility shift assay
T20 construct: purchased Carna Biosciences

NEK2 = target: T21, NEK2 (Homo sapiens, UniProt P51955); test: mobility shift assay
T21 construct: purchased Carna Biosciences

CK1y3 = target: T22, CK1y3 (Homo sapiens, UniProt Q9Y6M4); test: mobility shift assay
T22 construct: purchased Carna Biosciences

EGFR(d746-750/T790M) = target: T23, EGFR(d746-750/T790M) (Homo sapiens, UniProt P00533, DEL746-750/T790M); test: mobility shift assay
T23 construct: purchased Carna Biosciences
T23 sequence (P00533 with tags, fused parts or gaps DEL746-750/T790M limits assumed): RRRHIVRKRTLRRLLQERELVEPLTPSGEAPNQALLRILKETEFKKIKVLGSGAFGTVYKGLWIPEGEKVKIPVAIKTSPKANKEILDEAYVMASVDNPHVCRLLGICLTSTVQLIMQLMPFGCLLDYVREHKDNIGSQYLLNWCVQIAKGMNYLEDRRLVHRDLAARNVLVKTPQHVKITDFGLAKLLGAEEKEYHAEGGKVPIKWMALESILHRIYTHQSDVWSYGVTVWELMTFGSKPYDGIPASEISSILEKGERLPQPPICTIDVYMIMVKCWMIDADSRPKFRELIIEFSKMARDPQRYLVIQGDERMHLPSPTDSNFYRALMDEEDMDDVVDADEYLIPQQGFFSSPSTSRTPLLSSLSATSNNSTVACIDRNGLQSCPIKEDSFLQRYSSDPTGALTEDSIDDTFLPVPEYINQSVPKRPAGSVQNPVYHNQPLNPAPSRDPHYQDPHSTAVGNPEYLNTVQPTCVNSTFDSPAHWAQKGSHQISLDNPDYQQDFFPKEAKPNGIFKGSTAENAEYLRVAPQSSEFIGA

FLT4 = target: T24, FLT4 (Homo sapiens, UniProt P35916); test: mobility shift assay
T24 construct: purchased Carna Biosciences

MER = target: T25, MER (Homo sapiens, UniProt Q12866); test: mobility shift assay
T25 construct: purchased Carna Biosciences

EPHA4 = target: T26, EPHA4 (Homo sapiens, UniProt P54764); test: mobility shift assay
T26 construct: purchased Carna Biosciences

DAPK1 = target: T27, DAPK1 (Homo sapiens, UniProt P53355); test: mobility shift assay
T27 construct: purchased Carna Biosciences

ALK(C1156Y) = target: T28, ALK(C1156Y) (Homo sapiens, UniProt Q9UM73, C1156Y); test: mobility shift assay
T28 construct: purchased Carna Biosciences

LATS2 = target: T29, LATS2 (Homo sapiens, UniProt Q9NRM7); test: mobility shift assay
T29 construct: purchased Carna Biosciences

CRIK = target: T30, CRIK (Homo sapiens, UniProt O14578); test: mobility shift assay
T30 construct: purchased Carna Biosciences

TEC = target: T31, TEC (Homo sapiens, UniProt P42680); test: mobility shift assay
T31 construct: purchased Carna Biosciences

MAP2K5 Cascade = target: T32, MAP2K5 Cascade (Homo sapiens, UniProt Q13163); test: mobility shift assay
T32 construct: purchased Carna Biosciences

MGC42105 = target: T33, MGC42105 (Homo sapiens, UniProt Q8IY84); test: mobility shift assay
T33 construct: purchased Carna Biosciences

EGFR(T790/L858R) = target: T34, EGFR(T790/L858R) (Homo sapiens, UniProt P00533, L858R/T790M); test: mobility shift assay
T34 construct: purchased Carna Biosciences

PDGFRβ = target: T35, PDGFRβ (Homo sapiens, UniProt P09619); test: mobility shift assay
T35 construct: purchased Carna Biosciences

EGFR = target: T36, EGFR (Homo sapiens, UniProt P00533); test: mobility shift assay
T36 construct: purchased Carna Biosciences

ITK = target: T37, ITK (Homo sapiens, UniProt Q08881); test: mobility shift assay
T37 construct: purchased Carna Biosciences
T37 sequence (Q08881 whole entry): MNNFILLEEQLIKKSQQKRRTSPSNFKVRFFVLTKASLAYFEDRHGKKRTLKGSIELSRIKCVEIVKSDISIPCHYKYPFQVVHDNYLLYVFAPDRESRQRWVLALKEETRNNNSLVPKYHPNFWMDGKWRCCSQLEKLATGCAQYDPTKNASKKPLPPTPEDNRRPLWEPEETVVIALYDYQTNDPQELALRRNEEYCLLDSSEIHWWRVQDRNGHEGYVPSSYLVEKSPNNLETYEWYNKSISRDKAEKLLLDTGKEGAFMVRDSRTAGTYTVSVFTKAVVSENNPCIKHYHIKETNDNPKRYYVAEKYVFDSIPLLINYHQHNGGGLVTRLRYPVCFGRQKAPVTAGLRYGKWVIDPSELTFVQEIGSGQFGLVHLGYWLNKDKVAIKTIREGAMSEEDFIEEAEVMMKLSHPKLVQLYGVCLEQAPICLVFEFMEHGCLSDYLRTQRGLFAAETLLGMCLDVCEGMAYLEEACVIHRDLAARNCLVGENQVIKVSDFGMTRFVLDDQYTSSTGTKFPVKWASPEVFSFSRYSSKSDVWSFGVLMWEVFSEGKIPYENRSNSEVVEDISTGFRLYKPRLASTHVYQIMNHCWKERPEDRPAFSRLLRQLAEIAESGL

PKCβ1 = target: T38, PKCβ1 (Homo sapiens, UniProt P05771); test: mobility shift assay
T38 construct: purchased Carna Biosciences

CDK6 = CDK6 (Homo sapiens, UniProt Q00534); test: IC50 by mobility shift assay; conditions: Table 4, inhibitory activity against CDK6, mobility shift assay; read-out: IC50 (μM), Kinase
Text: Next, the compounds produced in Production Examples described above were each assessed for its inhibitory activity against CDK6 by mobility shift assay. In addition, a combination showing the highest inhibitory activity is indicated by italics.

T1 sequence (Q9H2X6 whole entry): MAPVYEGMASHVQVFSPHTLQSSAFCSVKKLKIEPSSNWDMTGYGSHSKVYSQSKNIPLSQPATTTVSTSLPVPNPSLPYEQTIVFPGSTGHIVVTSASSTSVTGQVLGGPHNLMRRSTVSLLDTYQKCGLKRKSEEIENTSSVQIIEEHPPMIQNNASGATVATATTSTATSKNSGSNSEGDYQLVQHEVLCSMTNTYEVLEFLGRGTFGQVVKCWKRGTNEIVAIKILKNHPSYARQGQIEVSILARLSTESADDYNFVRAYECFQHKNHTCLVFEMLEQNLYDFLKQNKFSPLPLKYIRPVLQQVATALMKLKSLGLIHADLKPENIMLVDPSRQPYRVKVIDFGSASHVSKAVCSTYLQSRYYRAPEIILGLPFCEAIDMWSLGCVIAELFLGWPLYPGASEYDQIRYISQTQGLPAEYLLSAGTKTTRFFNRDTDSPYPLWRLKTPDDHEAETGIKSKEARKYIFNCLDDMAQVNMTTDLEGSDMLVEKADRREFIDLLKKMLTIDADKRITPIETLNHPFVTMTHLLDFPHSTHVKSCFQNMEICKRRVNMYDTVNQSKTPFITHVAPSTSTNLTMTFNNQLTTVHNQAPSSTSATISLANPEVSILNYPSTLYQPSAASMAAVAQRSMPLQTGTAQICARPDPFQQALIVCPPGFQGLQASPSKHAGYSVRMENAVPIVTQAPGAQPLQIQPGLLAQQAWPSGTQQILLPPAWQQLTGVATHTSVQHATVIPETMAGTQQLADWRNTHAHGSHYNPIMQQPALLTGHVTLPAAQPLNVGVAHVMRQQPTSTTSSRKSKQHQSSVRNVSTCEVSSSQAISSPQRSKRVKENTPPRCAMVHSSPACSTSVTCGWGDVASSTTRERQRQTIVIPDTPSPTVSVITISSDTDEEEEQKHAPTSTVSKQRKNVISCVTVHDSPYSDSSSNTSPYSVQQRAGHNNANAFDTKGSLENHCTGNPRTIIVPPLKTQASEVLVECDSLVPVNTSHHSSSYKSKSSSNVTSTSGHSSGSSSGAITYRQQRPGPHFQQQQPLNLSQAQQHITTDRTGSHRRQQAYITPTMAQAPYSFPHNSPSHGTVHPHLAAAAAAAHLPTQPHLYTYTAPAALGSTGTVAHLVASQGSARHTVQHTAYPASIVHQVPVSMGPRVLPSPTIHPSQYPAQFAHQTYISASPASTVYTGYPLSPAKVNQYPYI

C[C@@H]1CC[C@H]2C(C)(C)CCC[C@]2(C)c2c1oc1c(C=O)c(O)c(O)cc21 [LG-1, liphagal] showed an inhibition at 10 µM (HPK2) of 27%, an inhibition at 10 µM (TAOK2) of 24.5% and an inhibition at 10 µM (FES) of 23.4%. It also gave an inhibition at 10 µM (WNK3) of 19%, an inhibition at 10 µM (KIT(V560G)) of 17.9% and an inhibition at 10 µM (COT_Cascade) of 14.7%. It also gave an inhibition at 10 µM (DCAMKL2) of 14%, an inhibition at 10 µM (DLK_Cascade) of 13.9% and an inhibition at 10 µM (FM8) of 12.5%. It also gave an inhibition at 10 µM (PAK2) of 12.4%, an inhibition at 10 µM (BTK) of 10.3% and an inhibition at 10 µM (p38B) of 9.1%. For the same molecule, the inhibition at 10 µM (PDGFRα) was 8.2%, the inhibition at 10 µM (CSK) was 7.2% and the inhibition at 10 µM (PDGFRα(V561D)) was 7.1%. It also gave an inhibition at 10 µM (KIT(D816Y)) of 6.2%, an inhibition at 10 µM (KIT) of 6% and an inhibition at 10 µM (MET(Y1235D)) of 5%. It also gave an inhibition at 10 µM (OK1δ) of 4.1%, an inhibition at 10 µM (YES(T348I)) of 3.7% and an inhibition at 10 µM (NEK2) of 3.5%. It also gave an inhibition at 10 µM (CK1y3) of 3%, an inhibition at 10 µM (EGFR(d746-750/T790M)) of 2.5% and an inhibition at 10 µM (FLT4) of 2.1%. For the same molecule, the inhibition at 10 µM (MER) was 2.1%, the inhibition at 10 µM (EPHA4) was 2% and the inhibition at 10 µM (DAPK1) was 1.8%. The inhibition at 10 µM (ALK(C1156Y)) was 0.2%, the inhibition at 10 µM (LATS2) was -0.6% and the inhibition at 10 µM (CRIK) was -0.8%. The inhibition at 10 µM (TEC) was -1.2%, the inhibition at 10 µM (MAP2K5 Cascade) was -1.3% and the inhibition at 10 µM (MGC42105) was -1.7%. It also gave an inhibition at 10 µM (EGFR(T790/L858R)) of -2.2%, an inhibition at 10 µM (PDGFRβ) of -3.4% and an inhibition at 10 µM (EGFR) of -4.4%. For the same molecule, the inhibition at 10 µM (ITK) was -6.5%, the inhibition at 10 µM (PKCβ1) was -18% and the IC50 (CDK6) was 6.78 µM.
